Reference: ChEMBL document CHEMBL1143545, “A proof of the specificity of kanamycin-ribosomal RNA interaction with designed synthetic analogs and the antibacterial activity” (2005)
≈ marks a conversion by molar mass, not a printed value.

Legend:
Type in all cases: functional
[1] = system: Mycolicibacterium smegmatis; assay: Minimal inhibitory concentration against Mycobacterium smegmatis ATCC607 was determined by 2-fold agar dilution streak method at 37C for 42h
Pseudomonas aeruginosa [2] = assay: Minimal inhibitory concentration against Pseudomonas aeruginosa 21-75 was determined by 2-fold agar dilution streak method at 37: C for 18 h
Bacillus cereus = assay: Minimal inhibitory concentration against Bacillus cereus ATCC 10702 was determined by 2-fold agar dilution streak method at 37: C for 18 h; details: ATCC 10702, 18 h
Pseudomonas aeruginosa [3] = assay: Minimal inhibitory concentration against Pseudomonas aeruginosa A3 was determined by 2-fold agar dilution streak method at 37: C for 18 h
Bacillus subtilis = assay: Minimal inhibitory concentration against Bacillus subtilis PCI219 was determined by 2-fold agar dilution streak method at 37: C for 18 h
Escherichia coli [4] = assay: Minimal inhibitory concentration against Escherichia coli K-12 ML1410 was determined by 2-fold agar dilution streak method at 37: C for 18 h
Pseudomonas aeruginosa [5] = assay: Minimal inhibitory concentration against Pseudomonas aeruginosa GN315 was determined by 2-fold agar dilution streak method at 37: C for 18 h
Escherichia coli [6] = assay: Minimal inhibitory concentration against Escherichia coli JR66/W677 was determined by 2-fold agar dilution streak method at 37: C for 18 h
Serratia marcescens = assay: Minimal inhibitory concentration against Serratia marcescens was determined by 2-fold agar dilution streak method at 37: C for 18 h
Staphylococcus aureus = assay: Minimal inhibitory concentration against Staphylococcus aureus FDA209P was determined by 2-fold agar dilution streak method at 37: C for 18 h
Klebsiella pneumoniae = assay: Minimal inhibitory concentration against Klebsiella pneumoniae PCI 602 was determined by 2-fold agar dilution streak method at 37: C for 18 h
Micrococcus luteus = assay: Minimal inhibitory concentration against Micrococcus luteus FDA16 was determined by 2-fold agar dilution streak method at 37: C for 18 h
Escherichia coli [7] = assay: Minimal inhibitory concentration against Escherichia coli K-12 was determined by 2-fold agar dilution streak method at 37: C for 18 h; details: K-12, 18 h

Structure (SMILES)	MIC [1] [µg/mL]	MIC (Pseudomonas aeruginosa [2]) [µg/mL]	MIC (Bacillus cereus) [µg/mL]	MIC (Pseudomonas aeruginosa [3]) [µg/mL]	MIC (Bacillus subtilis) [µg/mL]	MIC (Escherichia coli [4]) [µg/mL]	MIC (Pseudomonas aeruginosa [5]) [µg/mL]	MIC (Escherichia coli [6]) [µg/mL]	MIC (Serratia marcescens) [µg/mL]	MIC (Staphylococcus aureus) [µg/mL]	MIC (Klebsiella pneumoniae) [µg/mL]	MIC (Micrococcus luteus) [µg/mL]	MIC (Escherichia coli [7]) [µg/mL]
NCC1CCC(N)C(OC2C(N)CC(NC(=O)[C@H](N)CCCN=C(N)N)C(OC3OC(CO)C(O)C(N)C3O)C2O)O1 (stereo not given in full)	25 (≈ 41.1 µM)	> 100	25 (≈ 41.1 µM)	100 (≈ 165 µM)	3.13 (≈ 5.15 µM)	> 100	> 100	> 100	> 100	6.25 (≈ 10.3 µM)	100 (≈ 165 µM)	> 100	100 (≈ 165 µM)
NCC1CCC(N)C(OC2C(N)CC(N=C(N)N)C(OC3OC(CO)C(O)C(N)C3O)C2O)O1 (stereo not given)	3.13 (≈ 6.34 µM)	> 100	25 (≈ 50.7 µM)	25 (≈ 50.7 µM)	0.78 (≈ 1.58 µM)	> 100	> 100	> 100	> 100	0.78 (≈ 1.58 µM)	> 100	> 100	50 (≈ 101 µM)
NCCCC(=O)NC1CC(N)C(OC2OC(CN)CCC2N)C(O)C1OC1OC(CO)C(O)C(N)C1O (stereo not given)	6.25 (≈ 11.6 µM)	> 100	6.25 (≈ 11.6 µM)	3.13 (≈ 5.83 µM)	0.78 (≈ 1.45 µM)	25 (≈ 46.6 µM)	> 100	25 (≈ 46.6 µM)	> 100	1.56 (≈ 2.91 µM)	12.5 (≈ 23.3 µM)	100 (≈ 186 µM)	12.5 (≈ 23.3 µM)
NCC1CCC(N)C(OC2C(N)CC(NC(=O)[C@H](O)CCN=C(N)N)C(OC3OC(CO)C(O)C(N)C3O)C2O)O1 (stereo not given in full)	0.39 (≈ 0.656 µM)	12.5 (≈ 21 µM)	0.78 (≈ 1.31 µM)	0.39 (≈ 0.656 µM)	0.1 (≈ 0.168 µM)	1.56 (≈ 2.62 µM)	> 100	3.13 (≈ 5.26 µM)	25 (≈ 42 µM)	0.2 (≈ 0.336 µM)	1.56 (≈ 2.62 µM)	12.5 (≈ 21 µM)	0.78 (≈ 1.31 µM)
NCC1CCC(N)C(OC2C(N)CC(NC(=O)CCCN=C(N)N)C(OC3OC(CO)C(O)C(N)C3O)C2O)O1 (stereo not given)	6.25 (≈ 10.8 µM)	> 100	6.25 (≈ 10.8 µM)	6.25 (≈ 10.8 µM)	1.56 (≈ 2.7 µM)	25 (≈ 43.2 µM)	> 100	50 (≈ 86.4 µM)	> 100	1.56 (≈ 2.7 µM)	12.5 (≈ 21.6 µM)	100 (≈ 173 µM)	12.5 (≈ 21.6 µM)
